# Measurements reported in patent US7915050B2, “Regulatory genes for plant differentiation and growth, and use of the same” (National University Corporation Nagoya University, priority 2005, dated 2011).
# pKd: −log10 of the molar value.
# Molecular target: T1, AtGID1c in the presence of GAI (Arabidopsis thaliana, UniProt Q940G6)
# T1 construct: made in house; host or cells: E. coli (stated for AtGID1)
# T1 sequence (Q940G6 1-344): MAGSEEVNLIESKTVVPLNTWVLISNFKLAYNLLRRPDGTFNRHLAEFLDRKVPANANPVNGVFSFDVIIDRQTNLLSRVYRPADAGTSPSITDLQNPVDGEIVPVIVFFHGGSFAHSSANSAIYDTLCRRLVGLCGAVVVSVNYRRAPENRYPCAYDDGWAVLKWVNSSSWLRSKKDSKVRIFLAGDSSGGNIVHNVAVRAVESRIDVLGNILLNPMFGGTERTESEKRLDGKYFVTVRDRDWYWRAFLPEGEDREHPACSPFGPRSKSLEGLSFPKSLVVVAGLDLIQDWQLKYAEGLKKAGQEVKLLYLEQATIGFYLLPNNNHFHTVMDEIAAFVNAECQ
# T1 sequence (Q9LQT8 1-533 partner): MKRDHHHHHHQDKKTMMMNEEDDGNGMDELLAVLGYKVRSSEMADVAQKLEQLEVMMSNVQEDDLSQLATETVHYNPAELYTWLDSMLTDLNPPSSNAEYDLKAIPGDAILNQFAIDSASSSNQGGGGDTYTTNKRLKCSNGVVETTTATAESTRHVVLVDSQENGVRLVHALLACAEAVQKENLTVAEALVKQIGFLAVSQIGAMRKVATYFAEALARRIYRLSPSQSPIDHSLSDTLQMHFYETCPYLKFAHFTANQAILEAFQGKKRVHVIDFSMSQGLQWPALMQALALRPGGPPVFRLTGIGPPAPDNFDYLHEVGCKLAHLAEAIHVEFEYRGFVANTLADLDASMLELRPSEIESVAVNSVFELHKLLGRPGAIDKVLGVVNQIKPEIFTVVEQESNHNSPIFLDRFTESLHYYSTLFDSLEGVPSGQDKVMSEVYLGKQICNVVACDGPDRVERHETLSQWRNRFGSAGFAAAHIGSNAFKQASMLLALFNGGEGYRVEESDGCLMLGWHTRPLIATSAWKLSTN
# Test: Scatchard analysis of AtGID1c-GA binding in the presence of GAI
# Protocol: Panel A) depicts AtGID1-AtDELLA interaction in the presence of GA in two types of yeast hybrid (Y2H) assays. Each AtGID1 was used as a bait while AtDELLA was a prey. GA4 (10^−5 M) was added to the medium. The bars indicates β-galactosidase activity when o-nitrophenol-β-D-galactopyranoside was used as a substrate (Assay B). The growth of each transformant in the defined medium for 2 days (Assay A) is shown beneath of each bar graph. The experiment was carried out in quadruplicate. The SD value shown in the figure was determined from three measurements. Panel B) depicts the dose response in AtGID1-RGA interaction in Assay B of Y2H. GA4 (10^−5 to 10^−9 M) was added to the medium. The experiment was conducted in […]. The SD value shown in the figure was determined from three measurements. Panel C) depicts the results of an evaluation of the in vitro GA-binding potency of AtGID1 using AtDELLA. […] GAI (G) or RGA (R) was added, and then the GA-binding activity in each reaction mixture was measured according to the standard method. […] The SD value was determined from three measurements. […]
# Next, whether AtDELLAs exert some kind of influence on the GA-binding activity of AtGID1s was examined in vitro. After labeled 16,17-dihydro-GA4 and AtGID1s were combined, AtDELLAs were added to the solutions, and the GA-binding activity was measured. […]
smiles,measurement,value
"CC1C[C@]23C[C@H]1CCC2[C@]12CC[C@H](O)[C@](C)(C(=O)O1)[C@H]2[C@@H]3C(=O)O (stereo partly shown) [H2-GA4, 16,17-dihydro-GA4]",pKd,7.34
